Data as given in patent US20200237852A1, “Small Molecule Enhancers of Paneth Cell Function and Differentiation” (Massachusetts Institute of Technology, priority 2019, published 2020).

What was measured:
Type in all cases: cell-based, C57BL/6 mice
ENR+CD organoids = test: Flow cytometry analysis, 3D culture, XPO1 inhibitors; settings: 6-day ENR+CD organoids
Method: ISC-enriched organoids cultured in 3D Matrigel with ENRCV media were passaged to 24-well plate in 3D Matrigel with ENRCV. At day zero, media were replaced to ENRCD with or without indicated compounds, and media were replaced every other day. At day six, cells were washed with basal media, and then harvested from Matrigel by mechanical disruption in TrypLE Express (ThermoFisher, 12605010) to remove Matrigel and dissociate organoids to single cells. After vigorous pipetting and incubation at 37° C. for 20 min, dissociated organoids were strained through a 35 μm cell strainer into a tube (Falcon, 352235). The cell filtrate was centrifuged again at 300×g for 3 min at 4° C. to pellet the cells. Cell pellets were resuspended in FACS buffer (2% FBS in PBS), and then transferred to an ultra low-bind 96-well plate (Corning, 7007). Cells were stained with Zombie-violet viability dye (BioLegend, 423107) at 100× for viability staining and/or antibody staining solution. FITC-conjugated antibody for lysozyme (Dako, […]) and APC-conjugated antibody for CD24 (BioLegend, 138505) were used at 100× dilution. Flow cytometry was performed using an LSR Fortessa (BD; Koch Institute Flow Cytometry Core at MIT). The data were analyzed using FlowJo v10 software.

[1] = test system: mature PC (CD24-mid & LYZ+) and secretory precursor (CD24-hi) populations; test: Flow cytometry profiling of organoids in 2.5-D (CD24, LYZ); settings: 6-day ENR+CD+treatment, fraction of viable cells, n=3 bio. donors
From the text: Cells processed for flow cytometry were first gated to exclude potential debris or doublets (via widely accepted forward and side scatter gating), and subsequently gated for viability (via Zombie-violet viability dye exclusion), all viable cells were considered for CD24 & LYZ expression analysis. […] For flow cytometry profiling of the 6 validate small molecules, ISC-enriched ‘small clusters’ in 3D Matrigel culture were passaged to a “2.5D” 96-well plate culture system for six days of ENR, or ENR+CD+drug culture in the same manner as described previously with the exception of plating in 96-well plates prepared with a polymerized 70% Matrigel coating in each well. Plates were centrifuged at 50 g for 1 min at 4° C. to allow for cells to partially embed in Matrigel coating. Drugs were pinned into their respective wells using the Tecan from a drug stamp plate. Media was changed at day three, including pinning of the drug treatments. At day six, cells were washed 3× with basal media, then harvested from Matrigel by mechanical disruption in TrypLE Express to remove Matrigel and dissociate organoids to single cells. After vigorous pipetting and incubation at 37° C. for 20 mins, dissociated organoids were strained through a 96-well filter plate with a 30-40 μm filter (Pall) into an ultra low-bind 96-well plate (Costar) by centrifuging at 300×g for 3 mins at 4° C. The cell filtrate was centrifuged again at 300×g for 3 mins at 4° C. to pellet the cells. Cell pellets were resuspended in FACS buffer (2% FBS in PBS0), then transferred to an ultra low-bind 96-well plate for flow prep. Cells were stained with Zombie-violet viability dye (BioLegend) at 100× for viability staining and/or antibody staining solution. FITC-conjugated antibody for lysozyme and APC-conjugated antibody for CD24 were used at 100× dilution (BioLegend). Flow cytometry was performed using a LSR Fortessa (BD; Koch Institute Flow Cytometry Core at MIT). Flow cytometry data was analyzed using FlowJo X v10.1 software.

[2] = test system: organoids differentiated under ENR+CV, ENR+CD, or ENR; test: Western blotting for LYZ in organoids; settings: six days in ENR+CV
From the text: ISC-enriched organoids cultured in 3D Matrigel with ENRCV media were passaged to 24-well plate in 3D Matrigel with ENRCV. At day zero, media were replaced to ENR or ENRCD with or without indicated compounds, and media were replaced every other day. At day six, cells were harvested from Matrigel by mechanical disruption and suspended in basal media. Cell pellets were lysed with Pierce® IP lysis buffer (ThermoFisher, 87787) containing Halt™ Protease Inhibitor Cocktail, EDTA-Free (ThermoFisher, 87785) after 3-minute centrifuge at 300×g at 4° C. Cell extracts were resolved by NuPAGE® SDS-PAGE Gel system (ThermoFisher) and electroblotted onto polyvinylidene difluoride membranes using Criterion™ Blotter (Biorad). The membranes were blocked with 2% Blotting-Grade Blocker (Biorad, 1706404) in TBS-T (50 mM Tris-HCl, 150 mM NaCl, and 0.1% Tween 20, pH 8.0) and then probed with appropriate antibodies. Detection was performed using ECL Select™ Western Blotting Detection Reagent (Amersham, 45-000-999) and ImageQuant LAS4000 (GE Healthcare).

O=C(/C=C\n1cnc(-c2cc(C(F)(F)F)cc(C(F)(F)F)c2)n1)NNc1cnccn1 [KPT-330]
Paneth cell representation by flow cytometry (ENR+CD organoids): statistically significant increases in Paneth cell representation | mature PC (CD24-mid & LYZ+) population relative to control [1]: statistically significant increase (adj. p<0.01) | secretory precursor (CD24-hi) population relative to control [1]: trend to a smaller population | LYZ abundance on a per-mass protein normalized basis (western blot) [2]: appreciably increase LYZ abundance
